Source: the NIST ThermoML archive (doi:10.1021/je700339f)

Experiment: xn = mol fraction of the nth substance listed
Conditions: 298 K, Liquid

ClCCCCCl [1,4-dichlorobutane] + CN(C)C=O
mass density [kg/m3]
Conditions	x2 = 0.1003	x2 = 0.1923	x2 = 0.2994	x2 = 0.4006	x2 = 0.5022	x2 = 0.6004	x2 = 0.7029	x2 = 0.7943	x2 = 0.9006
100 kPa	1119	1105.1	1087.9	1071.2	1052.4	1034	1013.1	993.4	968.9
500 kPa	1119.3	1105.4	1088.2	1071.5	1052.7	1034.2	1013.4	993.7	969.2
1000 kPa	1119.7	1105.8	1088.6	1071.8	1053.1	1034.6	1013.8	994	969.6
1500 kPa	1120.1	1106.1	1089	1072.2	1053.5	1035	1014.1	994.3	969.8
2000 kPa	1120.4	1106.5	1089.3	1072.6	1053.8	1035.3	1014.4	994.7	970.2
2500 kPa	1120.8	1106.9	1089.7	1072.9	1054.2	1035.7	1014.7	995	970.5
3000 kPa	1121.2	1107.3	1090.1	1073.3	1054.5	1036	1015.1	995.4	970.7
3500 kPa	1121.6	1107.7	1090.4	1073.6	1054.8	1036.3	1015.4	995.7	971.1
4000 kPa	1122	1108.1	1090.8	1074	1055.2	1036.7	1015.8	996	971.4
4500 kPa	1122.3	1108.4	1091.2	1074.4	1055.5	1037	1016.1	996.4	971.8
5000 kPa	1122.7	1108.8	1091.6	1074.8	1055.9	1037.4	1016.4	996.7	972.1
5500 kPa	1123.1	1109.2	1091.9	1075.1	1056.2	1037.7	1016.8	996.9	972.3
6000 kPa	1123.4	1109.5	1092.3	1075.4	1056.6	1038.1	1017	997.3	972.6
6500 kPa	1123.8	1109.9	1092.6	1075.9	1057	1038.4	1017.5	997.6	972.9
7000 kPa	1124.2	1110.3	1093	1076.2	1057.2	1038.8	1017.8	997.9	973.3
7500 kPa	1124.6	1110.7	1093.4	1076.6	1057.6	1039.1	1018	998.3	973.6
8000 kPa	1124.9	1111	1093.7	1076.9	1057.9	1039.4	1018.4	998.5	973.9
8500 kPa	1125.2	1111.4	1094	1077.2	1058.3	1039.7	1018.7	998.9	974.2
9000 kPa	1125.6	1111.8	1094.4	1077.6	1058.7	1040.1	1019.1	999.2	974.5
9500 kPa	1126	1112.2	1094.8	1078	1059	1040.4	1019.4	999.5	974.8
10000 kPa	1126.4	1112.6	1095.2	1078.4	1059.3	1040.8	1019.7	999.9	975.2
10500 kPa	1126.8	1112.9	1095.5	1078.7	1059.7	1041.1	1020.1	1000.2	975.5
10900 kPa	1127.1	–	–	–	–	–	–	–	–
11000 kPa	–	1113.3	1095.9	1079.1	1060	1041.5	1020.4	–	975.8
11500 kPa	1127.4	1113.6	1096.2	1079.4	1060.3	1041.8	1020.7	1000.8	976.1
11900 kPa	–	1113.9	–	–	1060.6	–	–	–	–
12000 kPa	1127.8	–	1096.6	1079.8	–	1042.1	1021.1	1001.2	976.4
12500 kPa	1128.2	1114.3	1096.9	1080.1	1061	1042.4	1021.4	1001.5	976.7
12900 kPa	–	–	–	–	–	–	1021.7	–	–
13000 kPa	1128.5	1114.7	1097.3	1080.4	1061.3	1042.7	–	1001.7	976.9
13500 kPa	1128.9	1115	1097.7	1080.8	1061.6	1043.1	1022	1002.1	977.2
13900 kPa	–	1115.3	–	–	1062	–	–	–	–
14000 kPa	1129.2	–	1097.9	1081.1	–	1043.4	1022.4	1002.3	977.5
14400 kPa	–	–	–	1081.4	–	–	1022.6	–	–
14500 kPa	1129.5	1115.7	1098.2	–	1062.3	1043.7	–	1002.7	977.8
15000 kPa	1129.9	1116	1098.6	1081.8	1062.6	1044	1023	1003	978.1
15500 kPa	1130.3	1116.4	1099	1082.1	1063	1044.4	1023.2	1003.3	978.4
16000 kPa	1130.6	1116.8	1099.2	1082.5	1063.3	1044.6	1023.5	1003.5	978.7
16500 kPa	1130.9	1117.1	1099.6	1082.8	1063.6	1045	1023.8	1003.8	978.9
16900 kPa	–	1117.4	–	–	–	–	1024.1	1004.1	–
17000 kPa	1131.3	–	1100	1083.1	1063.9	1045.3	–	–	979.3
17500 kPa	1131.6	1117.8	1100.3	1083.5	1064.2	1045.6	1024.4	1004.5	979.5
17900 kPa	–	–	–	–	1064.5	–	–	–	–
18000 kPa	1132	1118.1	1100.6	1083.8	–	1045.9	1024.7	1004.9	979.8
18500 kPa	1132.3	1118.4	1100.9	1084.2	1065	1046.3	1025.1	1005.1	980
19000 kPa	1132.8	1118.8	1101.4	1084.5	1065.3	1046.6	1025.4	1005.5	980.4
19400 kPa	–	–	1101.7	–	–	–	–	1005.7	–
19500 kPa	1133.1	1119.1	–	1084.9	1065.5	1046.9	1025.7	–	980.7
20000 kPa	1133.4	1119.5	–	1085.3	1065.9	1047.2	1026.1	1006.1	981
20100 kPa	–	–	1102.2	–	–	–	–	–	–
